From US11446298B2, “Pyrimidine derivatives” (Idorsia Pharmaceuticals Ltd, priority 2017, dated 2022)
pIC50: −log10 of the molar value.

Experiments:
Format in all cases: cell-based
[1] = target: T1, PTGER2 (EP2) (Homo sapiens, UniProt P43116); assay: hEP2 b-Arrestin Assay (PathHunter HEK 293 PTGER2 b-arrestin cells, PGE2 5 μM); settings: antagonistic activity, beta-arrestin assay, HEK 293 PTGER2 cells, PGE2 5 μM (EC80); read-out: hEP2 b-arr IC50
T1 construct: host or cells: HEK 293 (PathHunter, stably transfected)
T1 sequence (P43116 whole entry): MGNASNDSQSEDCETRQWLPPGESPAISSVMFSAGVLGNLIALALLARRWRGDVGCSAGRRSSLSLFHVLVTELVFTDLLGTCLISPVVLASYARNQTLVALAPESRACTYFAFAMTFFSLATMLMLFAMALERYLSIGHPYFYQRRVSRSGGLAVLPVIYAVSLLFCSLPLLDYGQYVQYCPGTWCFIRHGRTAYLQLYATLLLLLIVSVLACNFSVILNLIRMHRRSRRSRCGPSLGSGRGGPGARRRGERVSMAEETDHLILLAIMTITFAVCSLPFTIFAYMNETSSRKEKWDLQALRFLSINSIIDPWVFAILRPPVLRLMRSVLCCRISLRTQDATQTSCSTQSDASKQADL
Outline: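 PathHunter enzyme-fragment complementation in HEK 293 cells: compounds (10 μM-2 nM or 1 μM-0.2 nM) pre-incubated 15 min at 37 °C, then 5 μM PGE2 (EC80) for 120 min at 37 °C. Chemiluminescence read after 1 h detection; IC50 from duplicate dose-response fits, means of repeats.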

[2] = target: T2, PTGER4 (EP4) (Homo sapiens, UniProt P35408); assay: hEP4 b-Arrestin Assay (PathHunter HEK 293 PTGER4 b-arrestin cells, PGE2 20 nM); settings: antagonistic activity, beta-arrestin assay, HEK 293 PTGER4 cells, PGE2 20 nM (EC80); read-out: hEP4 b-arr IC50
T2 construct: host or cells: HEK 293 (PathHunter, stably transfected)
T2 sequence (P35408 whole entry): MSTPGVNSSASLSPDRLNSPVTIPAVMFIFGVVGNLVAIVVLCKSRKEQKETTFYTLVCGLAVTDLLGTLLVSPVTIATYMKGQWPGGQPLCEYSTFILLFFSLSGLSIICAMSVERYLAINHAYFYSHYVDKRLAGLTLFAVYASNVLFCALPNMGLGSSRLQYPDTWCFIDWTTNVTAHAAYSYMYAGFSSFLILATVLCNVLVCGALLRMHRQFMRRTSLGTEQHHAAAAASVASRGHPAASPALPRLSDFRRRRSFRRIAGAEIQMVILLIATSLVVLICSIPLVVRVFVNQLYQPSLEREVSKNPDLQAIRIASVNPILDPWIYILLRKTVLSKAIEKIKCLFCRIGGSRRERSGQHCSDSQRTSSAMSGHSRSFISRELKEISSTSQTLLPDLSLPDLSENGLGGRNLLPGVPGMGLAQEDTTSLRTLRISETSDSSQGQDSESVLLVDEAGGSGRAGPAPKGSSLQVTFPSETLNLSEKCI
Outline: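 PathHunter HEK 293 EP4 b-arrestin enzyme-complementation cells preincubated 15 min at 37° C with compound (10 μM-2 nM or 1 μM-0.2 nM), then stimulated 120 min with 20 nM PGE2 (EC80). Chemiluminescence read; IC50 from duplicate % activity vs DMSO, one-site fit, averaged over repeats.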

[3] = target: T3, EP4 (Homo sapiens, UniProt P35408); assay: hEP4 cAMP Assay (BT549 breast cancer cells, HTRF cAMP, PGE2 6 nM); settings: antagonistic activity, PGE2 6 nM (EC80)
T3 construct: BT549 breast cancer cells, express high endogenous EP4 levels and very low EP2 levels; host or cells: BT549 breast cancer cells
T3 sequence (P35408 whole entry): as above
Outline: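 Antagonism is measured as inhibition of PGE2 (6 nM final, EC80) cAMP accumulation in EP4-expressing BT549 breast cancer cells, after a 45 min room-temperature compound pre-incubation and 30 min agonist step, with 2 mM IBMX present. HTRF ratio gives cAMP relative to DMSO; IC50 fitted, means over repeat runs.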

[4] = target: T4, EP2 (Homo sapiens, UniProt P43116); assay: hEP2 cAMP Assay (SF295 glioblastoma cells, HTRF cAMP, PGE2 75 nM); settings: antagonistic activity, PGE2 75 nM (EC80)
T4 construct: SF295 glioblastoma cells express high endogenous EP2 and no EP4; host or cells: SF295 glioblastoma cells
T4 sequence (P43116 whole entry): as the sequence (P43116 whole entry) above
Outline: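 IC50 values derive from duplicate-point curves of percent cAMP relative to DMSO, read by HTRF (665/620 nm) against a cAMP calibrator. Compounds (30 μM to 0.01 nM ranges) were given 45 min at room temperature before 30 min with 75 nM PGE2, in EP2-only SF295 cells with 2 mM IBMX.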

Compound | pIC50 [1] | pIC50 [2] | pIC50 [3] | pIC50 [4]
CCOc1cc(-c2cc(NCCc3ccc(C#N)c4ccccc34)ncn2)sc1C(=O)O [Example 69, 5-{6-[2-(4-Cyano-naphthalen-1-yl)-ethylamino]-pyrimidin-4-yl}-3-ethoxy-thiophene-2-carboxylic acid] | 7.11 | 7.32 | 7.18 | 7.10
CCOc1cc(-c2cc(NCCc3c(C#N)ccc4ccccc34)ncn2)ccc1C(=O)O [Example 67, 4-{6-[2-(2-Cyano-naphthalen-1-yl)-ethylamino]-pyrimidin-4-yl}-2-ethoxy-benzoic acid] | 7.54 | 6.30 | 6.51 | 7.60
CCOc1cc(-c2cc(NCCc3cccc4ccoc34)ncn2)sc1C(=O)O [Example 35, 5-[6-(2-Benzofuran-7-yl-ethylamino)-pyrimidin-4-yl]-3-ethoxy-thiophene-2-carboxylic acid] | 6.94 | 6.95 | 7.04 | 7.12
CCOc1cc(-c2cc(NCCc3cccc4[nH]ccc34)ncn2)sc1C(=O)O [Example 39, 3-Ethoxy-5-{6-[2-(1H-indol-4-yl)-ethylamino]-pyrimidin-4-yl}-thiophene-2-carboxylic acid] | 7.09 | 6.41 | 7.00 | 7.30
CCOc1cc(-c2cc(NCCc3c(OC)ccc4c3OCO4)ncn2)sc1C(=O)O [Example 44, 3-Ethoxy-5-{6-[2-(5-methoxy-benzo[1,3]dioxol-4-yl)-ethylamino]-pyrimidin-4-yl}-thiophene-2-carboxylic acid] | 7.44 | 7.29 | 7.38 | 7.43
CCOc1cc(-c2cc(NCCc3cccc4cccnc34)ncn2)sc1C(=O)O [Example 23, 3-Ethoxy-5-[6-(2-quinolin-8-yl-ethylamino)-pyrimidin-4-yl}-thiophene-2-carboxylic acid] | 6.52 | 6.53 | 6.62 | 6.61
CCOc1cc(-c2cc(NCCc3c(OC)ccc4ncccc34)ncn2)sc1-c1noc(=O)[nH]1 [Example 142, 3-(3-Ethoxy-5-{6-[2-(6-methoxy-quinolin-5-yl)-ethylamino]-pyrimidin-4-yl}-thiophen-2-yl)-[1,2,4]oxadiazol-5(4H)-one] | 8.15 | 8.00 | 7.57 | 7.40
COc1ccc2ccccc2c1CCNc1cc(-c2ccc(C(=O)O)c(OC3CCC3)c2)ncn1 [Example 5, 2-Cyclobutoxy-4-{6-[2-(2-methoxy-naphthalen-1-yl)-ethylamino]-pyrimidin-4-yl}-benzoic acid] | 7.60 | 6.74 | 6.69 | 7.62
CCOc1cc(-c2cc(NCCc3ccc(OC)c4ccccc34)ncn2)sc1-c1noc(=O)[nH]1 [Example 141, 3-(3-Ethoxy-5-{6-[2-(4-methoxy-naphthalen-1-yl)-ethylamino]-pyrimidin-4-yl}-thiophen-2-yl)-[1,2,4]oxadiazol-5(4H)-one] | 7.21 | 8.40 | 7.77 | 7.14
CCOc1cc(-c2cc(NCCc3c(OCC)ccc4ccccc34)ncn2)ccc1C(=O)O [Example 179, 2-Ethoxy-4-{6-[2-(2-ethoxy-naphthalen-1-yl)-ethylamino]-pyrimidin-4-yl}-benzoic acid] | 8.40 | 6.03 | 5.82 | 8.10
CCOc1cc(-c2cc(NCCc3cccc4cccnc34)ncn2)sc1-c1noc(=O)[nH]1 [Example 140, 3-{3-Ethoxy-5-[6-(2-quinolin-8-yl-ethylamino)-pyrimidin-4-yl]-thiophen-2-yl}-[1,2,4]oxadiazol-5(4H)-one] | 6.92 | 7.82 | 7.77 | 6.85
CCOc1cc(-c2cc(NCCc3cccc4c(C)cccc34)ncn2)ccc1C(=O)O [Example 184, 2-Ethoxy-4-{6-[2-(5-methyl-naphthalen-1-yl)-ethylamino]-pyrimidin-4-yl}-benzoic acid] | 7.57 | 6.43 | 6.48 | 7.32
CCOc1cc(-c2cc(NCCc3ccc(C(F)F)c4ccccc34)ncn2)sc1C(=O)O [Example 72, 5-{6-[2-(4-Difluoromethyl-naphthalen-1-yl)-ethylamino]-pyrimidin-4-yl}-3-ethoxy-thiophene-2-carboxylic acid] | 7.30 | 8.10 | 8.22 | 7.30
CCOc1cc(-c2cc(NCCc3c(OC)ccc4ccccc34)ncn2)sc1-c1noc(=O)[nH]1 [Example 138, 3-(3-Ethoxy-5-{6-[2-(2-methoxy-naphthalen-1-yl)-ethylamino]-pyrimidin-4-yl}-thiophen-2-yl)-[1,2,4]oxadiazol-5(4H)-one] | 8.52 | 8.40 | 8.10 | 8.22
CCOc1cc(-c2cc(NCCc3c(C)ccc4cnccc34)ncn2)sc1C(=O)O [Example 85, 3-Ethoxy-5-{6-[2-(6-methyl-isoquinolin-5-yl)-ethylamino]-pyrimidin-4-yl}-thiophene-2-carboxylic acid] | 7.52 | 6.61 | 6.89 | 7.49
CCOc1cc(-c2cc(NCCc3c(N)ccc4ccccc34)ncn2)sc1C(=O)O [Example 78, 5-{6-[2-(2-Amino-naphthalen-1-yl)-ethylamino]-pyrimidin-4-yl}-3-ethoxy-thiophene-2-carboxylic acid] | 7.39 | 7.30 | 7.29 | 7.25
CCOc1cc(-c2cc(NCCc3cccc4cc[nH]c34)ncn2)sc1C(=O)O [Example 46, 3-Ethoxy-5-{6-[2-(1H-indol-7-yl)-ethylamino]-pyrimidin-4-yl}-thiophene-2-carboxylic acid] | 6.96 | 6.51 | 6.61 | 7.07
CCOc1cc(-c2cc(NCCc3c(C#N)ccc4c(OC)ccc(F)c34)ncn2)sc1C(=O)O [Example 158, 5-{6-[2-(2-Cyano-8-fluoro-5-methoxy-naphthalen-1-yl)-ethylamino]-pyrimidin-4-yl}-3-ethoxy-thiophene-2-carboxylic acid] | 6.90 | 8.52 | 8.52 | 6.54
CCOc1cc(-c2cc(NCCc3ccc(C)c4ccccc34)ncn2)sc1C(=O)O [Example 18, 3-Ethoxy-5-{6-[2-(4-methyl-naphthalen-1-yl)-ethylamino]-pyrimidin-4-yl}-thiophene-2-carboxylic acid] | 7.72 | 8.05 | 8.15 | 7.68
CCOc1cc(-c2cc(NCCc3c(OC)ccc4ccccc34)ncn2)ccc1-c1nnn[nH]1 [Example 125, {6-[3-Ethoxy-4-(1H-tetrazol-5-yl)-phenyl]-pyrimidin-4-yl}-[2-(2-methoxy-naphthalen-1-yl)-ethyl]amine] | 8.10 | 7.54 | 7.54 | 7.62
CCOc1cc(-c2cc(NCCc3cccc4nc(C)sc34)ncn2)sc1C(=O)O [Example 31, 3-Ethoxy-5-{6-[2-(2-methyl-benzothiazol-7-yl)-ethylamino]-pyrimidin-4-yl}-thiophene-2-carboxylic acid] | 6.70 | 5.85 | 6.25 | 6.72
